The values below are quoted from earlier work in article PMC3203620 (The Journal of Organic Chemistry, 2011).

One series concerns Mt. The settings on record: due to poor uptake.
The subject of series [1] is Plasmodium falciparum DXR.

Consider `O=CN(O)CCCP(=O)(O)O` [Compound 1, fosmidomycin], for which the pharmacokinetic properties result is reported as “poor pharmacokinetic properties”. Besides, the “activity on Mt at the whole cell level” value in the series on Mt was “inactive”. In addition, the “inhibition of Plasmodium falciparum DXR in vitro” value in series [1] is given as “potent inhibitor”. Further, the “activity in vivo in P. vinckei infected mice” value in the series with P. vinckei is “potent inhibitor”.
